Assay results taken from ChEMBL document CHEMBL5512627, “Small-molecule agents for treating skin diseases” (Eur J Med Chem, 2024).
Each block holds one compound with its values, some of them ahead of it.

What was measured:
[1] = Upregulation of NE suppressed c-Kit expression in human epidermal melanocyte; assay type: functional, cell-based
[2] = Inhibition of lipid synthesis in androgen stimulated Hamster flank gland; assay type: functional, Mesocricetus auratus
[3] = organism: Mus musculus; experiment: Anti-inflammatory activity in imiquimod-induced C57BL/6 mouse psoriasis model assessed as reduction in epidermal thickness at 200 uL relative to control; assay type: functional; set-up: scale not given: the % may be the effect or the level left
[4] = target: T1, 3-oxo-5-alpha-steroid 4-dehydrogenase 1 (Homo sapiens, UniProt P18405); experiment: Inhibition of human steroid 5-alpha-reductase 1
T1 sequence (P18405 whole entry): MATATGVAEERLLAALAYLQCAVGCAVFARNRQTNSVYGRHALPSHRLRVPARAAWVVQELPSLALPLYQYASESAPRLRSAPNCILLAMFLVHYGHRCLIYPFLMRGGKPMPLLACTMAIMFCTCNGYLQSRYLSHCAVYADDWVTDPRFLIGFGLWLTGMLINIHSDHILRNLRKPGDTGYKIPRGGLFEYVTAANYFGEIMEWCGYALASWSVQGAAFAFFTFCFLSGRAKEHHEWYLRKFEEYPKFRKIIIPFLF

[5] = organism: Mus musculus; experiment: Anti-inflammatory activity in imiquimod-induced BALB/c mouse psoriasis model assessed as reduction in skin inflammation; assay type: functional, organism-based

SMILES: COC(=O)C1=CO[C@@H](O[C@@H]2O[C@H](CO)[C@@H](O)[C@H](O)[C@H]2O)[C@@H]2C(CO)=CC[C@H]12 [GENIPOSIDE]
- EC50 [1]: 1650 nM

SMILES: C[C@]12C=CC(=O)C=C1CC[C@@H]1[C@@H]2C(=O)C[C@@]2(C)[C@H]1CC[C@]2(Cl)S(=O)(=O)Cc1ccccc1
- inhibition (INH) [2]: 70%

SMILES: CCc1ccc(N(CC(C)C)S(=O)(=O)c2ccc(OCC3CCOCC3)c(CO)c2)cc1 [GSK2981278]
- Activity [3]: 23%

- IC50 [4]: 14.2 nM
SMILES: CC1=C2CCc3cc(/C=C/c4ccccc4)ccc3N2CCC1=O

- EC50 [5]: 4 nM
SMILES: CN1C(=O)[C@@H](NC(=O)c2n[nH]c(Cc3ccccc3)n2)COc2ccccc21 [GSK2982772]
